The numbers were not newly measured in patent US10871492B2, “Methods for labeling urine in a subject with fluorophores” (UPTRU INC., priority 2015, dated 2020), which cites them from elsewhere.

The conditions of this series: health care applications, especially fundus angiography.

For `O=C([O-])c1ccccc1-c1c2ccc(=O)cc-2oc2cc([O-])ccc12.[Na+].[Na+]` [Fluorescein sodium salt, fluorescein sodium salt], the “dose generally considered safe” value is on record as ≤ 25 mg/kg of body weight.
